Measurements as given in US11014911B2, “CDK2 inhibitors” (Pfizer Inc., priority 2019, dated 2021).

Assays:
GSK3β (H350L) = GSK3β (H350L) (Homo sapiens (Human), UniProt P49841); conditions: read-out: GSK3β Ki
Procedure: The assay was initiated with the addition of ATP, following 15 minutes pre-incubation of enzyme and inhibitor at room temperature in the reaction mixture. The reaction was stopped after 30 minutes at room temperature by the addition of 50 μL of 80 mM EDTA.

[1] = biological target: CDK2/Cyclin E1 full length (Homo sapiens (Human), UniProt P24941); assay: CDK2/Cyclin E1 full length mobility shift assay; format: biochemical
Procedure: Cdk2/Cyclin E1 Full Length Mobility Shift Assay
Wild-type CDK2/wild-type full length Cyclin E1 enzyme complex was produced in-house (baculoviral expression, LJIC-2080/LJIC-2103) and phosphorylated by CDK7/Cyclin H1/Matl enzyme complex with CDK2:CDK7 ratio of 50:1 (concentration mg/mL) in the presence of 10 mM MgCl2 and 5 mM ATP at room temperature for one hour. […] The assay was initiated with the addition of ATP, following a fifteen minutes pre-incubation of enzyme and inhibitor at room temperature in the reaction mixture. The reaction was stopped after 45 minutes at room temperature by the addition of 50 μL of 80 mM EDTA.

GSK3β (H350L), sequence (P49841 whole entry, stated change not applied): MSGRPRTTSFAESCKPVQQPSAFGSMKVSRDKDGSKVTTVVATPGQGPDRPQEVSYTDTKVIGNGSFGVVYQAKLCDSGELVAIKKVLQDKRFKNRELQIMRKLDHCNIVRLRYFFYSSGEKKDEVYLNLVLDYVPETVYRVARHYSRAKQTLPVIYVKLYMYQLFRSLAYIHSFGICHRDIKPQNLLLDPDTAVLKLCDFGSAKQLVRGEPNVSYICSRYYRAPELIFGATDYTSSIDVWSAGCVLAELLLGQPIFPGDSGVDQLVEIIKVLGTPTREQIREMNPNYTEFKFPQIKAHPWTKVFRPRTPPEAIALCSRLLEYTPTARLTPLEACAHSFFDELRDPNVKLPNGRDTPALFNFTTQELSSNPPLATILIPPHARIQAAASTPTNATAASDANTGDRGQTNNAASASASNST

SMILES	Ki (GSK3β (H350L))	Ki [1]
Cc1coc(CC(=O)Nc2cc([C@H]3CC[C@@H](OC(=O)NC(C)C)C3)[nH]n2)n1 [Example 272, (1R,3S)-3-(3-{[(4-methyl-1,3-oxazol-2-yl)acetyl]amino}-1H-pyrazol-5-yl)cyclopentyl propan-2-ylcarbamate]	40.9 nM	2.63 nM
CC[C@H](C)NC(=O)O[C@@H]1CC[C@H](c2cc(NC(=O)Cc3nc(C)cs3)n[nH]2)C1 [Example 343, (1R,3S)-3-(3-{[(4-methyl-1,3-thiazol-2-yl)acetyl]amino}-1H-pyrazol-5-yl)cyclopentyl (2S)-butan-2-ylcarbamate]	26.1 nM	0.77 nM
CC1(NC(=O)O[C@@H]2CC[C@H](c3cc(NC(=O)Cc4ccno4)n[nH]3)C2)CC1 [Example 128]	55.4 nM	0.15 nM
CC[C@H](C)NC(=O)O[C@@H]1CC[C@H](c2cc(NC(=O)c3cncn3C)n[nH]2)C1 [Example 321, (1R,3S)-3-(3-{[(1-methyl-1H-imidazol-5-yl)carbonyl]amino}-1H-pyrazol-5-yl)cyclopentyl (2S)-butan-2-ylcarbamate]	> 191 nM	0.63 nM
Cc1ncc(CC(=O)Nc2cc([C@@H]3CC[C@H](OC(=O)N[C@H]4CC[C@@H](O)CC4)C3)[nH]n2)s1 [Example 550, (1S,3R)-3-(3-{[(2-methyl-1,3-thiazol-5-yl)acetyl]amino}-1H-pyrazol-5-yl)cyclopentyl (cis-4-hydroxycyclohexyl)carbamate]	3.12 nM	0.36 nM
Cc1ccc(CC(=O)Nc2cc([C@H]3CC[C@@H](OC(=O)NCC(F)F)C3)[nH]n2)cn1 [Example 247, (1R,3S)-3-(3-{[(6-methylpyridin-3-yl)acetyl]amino}-1H-pyrazol-5-yl)cyclopentyl (2,2-difluoroethyl)carbamate]	12.2 nM	1.36 nM
CCCNC(=O)O[C@@H]1CC[C@H](c2cc(NC(=O)c3ccnn3C)n[nH]2)C1 [Example 164, (1R,3S)-3-(3-{[(1-methyl-1H-pyrazol-5-yl)carbonyl]amino}-1H-pyrazol-5-yl)cyclopentyl propylcarbamate]	44.7 nM	0.72 nM
CC[C@H](C)NC(=O)O[C@H]1CC[C@@H](c2cc(NC(=O)c3cnnn3C)n[nH]2)C1 [Example 31]	45.1 nM	0.16 nM
COc1ccc(CC(=O)Nc2cc([C@H]3CC[C@@H](OC(=O)N(C)C(C)C)C3)[nH]n2)cn1 [Example 59]	2.89 nM	0.15 nM
CC[C@H](C)NC(=O)O[C@@H]1CC[C@H](c2cc(NC(=O)Cc3ncc(C)o3)n[nH]2)C1 [Example 333, (1R,3S)-3-(3-{[(5-methyl-1,3-oxazol-2-yl)acetyl]amino}-1H-pyrazol-5-yl)cyclopentyl (2S)-butan-2-ylcarbamate]	63.2 nM	0.41 nM
Cc1ncc(CC(=O)Nc2cc([C@@H]3CC[C@H](OC(=O)N[C@H]4CC[C@@](C)(O)CC4)C3)[nH]n2)s1 [Example 562, (1S,3R)-3-(3-{[(2-methyl-1,3-thiazol-5-yl)acetyl]amino}-1H-pyrazol-5-yl)cyclopentyl (cis-4-hydroxy-4-methylcyclohexyl)carbamate]	4.85 nM	0.43 nM
COc1ccc(CC(=O)Nc2cc([C@@H]3CC[C@H](OC(=O)N[C@H]4CC[C@@H](O)CC4)C3)[nH]n2)nc1 [Example 554, (1S,3R)-3-(3-{[(5-methoxypyridin-2-yl)acetyl]amino}-1H-pyrazol-5-yl)cyclopentyl (cis-4-hydroxycyclohexyl)carbamate]	5.11 nM	1.76 nM
COc1cc(CC(=O)Nc2cc([C@@H]3CC[C@H](OC(=O)N[C@H]4CC[C@@H](O)CC4)C3)[nH]n2)ccn1 [Example 552, (1S,3R)-3-(3-{[(2-methoxypyridin-4-yl)acetyl]amino}-1H-pyrazol-5-yl)cyclopentyl (cis-4-hydroxycyclohexyl)carbamate]	2.41 nM	0.29 nM
COc1ccc(CC(=O)Nc2cc([C@H]3CC[C@@H](OC(=O)NC(C)(C)C)C3)[nH]n2)cn1 [Example 114]	5.65 nM	0.19 nM
Cc1cc(CC(=O)Nc2cc([C@H]3CC[C@@H](OC(=O)N4CCC[C@@H]4C)C3)[nH]n2)on1 [Example 632, (1R,3S)-3-(3-{[(3-methyl-1,2-oxazol-5-yl)acetyl]amino}-1H-pyrazol-5-yl)cyclopentyl (2S)-2-methylpyrrolidine-1-carboxylate]	12.7 nM	0.36 nM
CCCNC(=O)O[C@@H]1CC[C@H](c2cc(NC(=O)Cc3cnc(OC)s3)n[nH]2)C1 [Example 190, (1R,3S)-3-(3-{[(2-methoxy-1,3-thiazol-5-yl)acetyl]amino}-1H-pyrazol-5-yl)cyclopentyl propylcarbamate]	26.1 nM	0.81 nM
Cc1ccc(CC(=O)Nc2cc([C@@H]3CC[C@H](OC(=O)N[C@H]4CC[C@@H](O)CC4)C3)[nH]n2)cn1 [Example 545, (1S,3R)-3-(3-{[(6-methylpyridin-3-yl)acetyl]amino}-1H-pyrazol-5-yl)cyclopentyl (cis-4-hydroxycyclohexyl)carbamate]	2.2 nM	0.39 nM

SMILES	Ki (GSK3β (H350L))	Ki [1]
COc1cc(CC(=O)Nc2cc([C@H]3CC[C@@H](OC(=O)NCCC(F)(F)F)C3)[nH]n2)ccn1 [Example 102]	9.9 nM	0.39 nM
CCCNC(=O)O[C@H]1CC[C@@H](c2cc(NC(=O)c3ccnc(C)c3)n[nH]2)C1 [Example 170, (1S,3R)-3-(3-{[(2-methylpyridin-4-yl)carbonyl]amino}-1H-pyrazol-5-yl)cyclopentyl propylcarbamate]	> 191 nM	1.37 nM
CC[C@H](C)NC(=O)O[C@@H]1CC[C@H](c2cc(NC(=O)Cc3cnn(C)c3)n[nH]2)C1 [Example 327, (1R,3S)-3-(3-{[(1-methyl-1H-pyrazol-4-yl)acetyl]amino}-1H-pyrazol-5-yl)cyclopentyl (2S)-butan-2-ylcarbamate]	57.8 nM	0.44 nM
CCCNC(=O)O[C@H]1CC[C@@H](c2cc(NC(=O)Cc3ccno3)n[nH]2)C1 [Example 168, (1S,3R)-3-{3-[(1,2-oxazol-5-ylacetyl)amino]-1H-pyrazol-5-yl}cyclopentyl propylcarbamate]	25.8 nM	0.36 nM
CC[C@@H](C)NC(=O)O[C@@H]1CC[C@H](c2cc(NC(=O)Cc3ccno3)n[nH]2)C1 [Example 322, (1R,3S)-3-{3-[(1,2-oxazol-5-ylacetyl)amino]-1H-pyrazol-5-yl}cyclopentyl (2R)-butan-2-ylcarbamate]	81.2 nM	0.93 nM
CCCNC(=O)O[C@@H]1CC[C@H](c2cc(NC(=O)Cc3cc(C)no3)n[nH]2)C1 [Example 178, (1R,3S)-3-(3-{[(3-methyl-1,2-oxazol-5-yl)acetyl]amino}-1H-pyrazol-5-yl)cyclopentyl propylcarbamate]	21.4 nM	1.1 nM
COc1ccc(CC(=O)Nc2cc([C@H]3CC[C@@H](OC(=O)N4C[C@@H](OC)[C@@H]4C)C3)[nH]n2)cn1 [Example 621, (1R,3S)-3-(3-{[(6-methoxypyridin-3-yl)acetyl]amino}-1H-pyrazol-5-yl)cyclopentyl (2S,3R)-3-methoxy-2-methylazetidine-1-carboxylate]	2.77 nM	0.36 nM
COc1ccc(CC(=O)Nc2cc([C@@H]3CC[C@H](OC(=O)N4C[C@@H](O)[C@@H]4C)C3)[nH]n2)cn1 [Example 614, (1S,3R)-3-(3-{[(6-methoxypyridin-3-yl)acetyl]amino}-1H-pyrazol-5-yl)cyclopentyl (2S,3R)-3-hydroxy-2-methylazetidine-1-carboxylate]	6.58 nM	1.66 nM
O=C(Cc1cc(F)cc(F)c1)Nc1cc([C@H]2CC[C@@H](OC(=O)NCC(F)F)C2)[nH]n1 [Example 253, (1R,3S)-3-(3-{[(3,5-difluorophenyl)acetyl]amino}-1H-pyrazol-5-yl)cyclopentyl (2,2-difluoroethyl)carbamate]	28.8 nM	1.26 nM
COc1ccc(CC(=O)Nc2cc([C@H]3CC[C@@H](OC(=O)NC(C)C)C3)[nH]n2)cc1 [Example 275, (1R,3S)-3-(3-{[(4-methoxyphenyl)acetyl]amino}-1H-pyrazol-5-yl)cyclopentyl propan-2-ylcarbamate]	53.1 nM	0.49 nM
Cc1cnc(CC(=O)Nc2cc([C@H]3CC[C@@H](OC(=O)N4[C@@H](C)C[C@@H]4C)C3)[nH]n2)o1 [Example 606, (1R,3S)-3-(3-{[(5-methyl-1,3-oxazol-2-yl)acetyl]amino}-1H-pyrazol-5-yl)cyclopentyl (2S,4S)-2,4-dimethylazetidine-1-carboxylate]	11.5 nM	0.63 nM
CCCNC(=O)O[C@@H]1CC[C@H](c2cc(NC(=O)Cc3cc(OC)ccc3S(C)(=O)=O)n[nH]2)C1 [Example 213, (1R,3S)-3-[3-({[5-methoxy-2-(methylsulfonyl)phenyl]acetyl}amino)-1H-pyrazol-5-yl]cyclopentyl propylcarbamate]	183 nM	0.32 nM
Cc1cnc(CC(=O)Nc2cc([C@H]3CC[C@@H](OC(=O)NC(C)(C)C)C3)[nH]n2)cn1 [Example 299, (1R,3S)-3-(3-{[(5-methylpyrazin-2-yl)acetyl]amino}-1H-pyrazol-5-yl)cyclopentyl tert-butylcarbamate]	29.9 nM	0.26 nM
CCc1nn2cc(CC(=O)Nc3cc([C@H]4CC[C@@H](OC(=O)N[C@@H](C)CC)C4)[nH]n3)nc2s1 [Example 367, (1R,3S)-3-(3-{[(2-ethylimidazo[2,1-b][1,3,4]thiadiazol-6-yl)acetyl]amino}-1H-pyrazol-5-yl)cyclopentyl (2S)-butan-2-ylcarbamate]	23.5 nM	0.27 nM
CC[C@H](C)NC(=O)O[C@@H]1CC[C@H](c2cc(NC(=O)Cc3ccnc(OC)c3)n[nH]2)C1 [Example 37]	23.4 nM	0.19 nM
CC[C@H](C)NC(=O)O[C@@H]1CC[C@H](c2cc(NC(=O)Cc3cnn(C(C)C)c3)n[nH]2)C1 [Example 349, (1R,3S)-3-[3-({[1-(propan-2-yl)-1H-pyrazol-4-yl]acetyl}amino)-1H-pyrazol-5-yl]cyclopentyl (2S)-butan-2-ylcarbamate]	57.3 nM	0.4 nM
